Reference: the supplement of paper PMC10331698
± gives the standard deviation of the averaged measurements.

Legend:
Test in all cases: level (log10 ratio to DMSO vehicle control); higher = higher biomarker level / cell amount than vehicle control
Details in all cases: in DMSO
[1] = compound: FC(F)(F)C(F)(F)C(F)(F)C(F)(F)C(F)(F)C(F)(F)C(F)(F)C(F)(F)CCS [2-(Perfluorooctyl)ethanthiol]
Protocol: (§1)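 BioMAP Diversity Plus panel of 12 human primary cell co-culture systems (3C, 4H, LPS, SAg, BT, BF4T, BE3C, CASM3C, HDF3CGF, KF3CT, MyoF, Mphg). Compounds were added 1 h before stimulation and left for 24 h (MyoF 48 h; BT 72 h for soluble read-outs or 6 d for IgG). Biomarkers were read by ELISA, cytotoxicity by SRB, PBMC viability and proliferation by Alamar Blue. Each well value was divided by the mean of 8 DMSO control wells on the same plate and log10 transformed; duplicate blinded samples were tested at 4 concentrations.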

[2] = compound: FC(F)(F)C(F)(C(F)(F)F)C(F)(F)C(F)(F)CC1CO1 [3-(Perfluoro-3-methylbutyl)-1,2-propenoxide]
Protocol: as §1

Heptafluorobutyramide = compound: NC(=O)C(F)(F)C(F)(F)C(F)(F)F [Heptafluorobutyramide]
Protocol: as §1

[3] = compound: CCN(CCO)S(=O)(=O)C(F)(F)C(F)(F)C(F)(F)C(F)(F)C(F)(F)C(F)(F)C(F)(F)C(F)(F)F [N-Ethyl-N-(2-hydroxyethyl)perfluorooctanesulfonamide]
Protocol: as §1

[4] = compound: FC(F)(F)C(F)(F)C(F)(F)C(F)(F)C(F)(F)CCI [1-Iodo-1H,1H,2H,2H-perfluoroheptane]
Protocol: as §1

[5] = compound: NCC(F)(F)C(F)(F)C(F)(F)C(F)(F)C(F)(F)C(F)(F)C(F)(F)F [1H,1H-Perfluorooctylamine]
Protocol: as §1

Perfluoroheptanoic acid = compound: O=C(O)C(F)(F)C(F)(F)C(F)(F)C(F)(F)C(F)(F)C(F)(F)F [Perfluoroheptanoic acid]
Protocol: as §1

Test System | level (log10) ([1]; 6700 nM) | level (log10) ([1]; 20000 nM) | level (log10) ([2]; 6700 nM) | level (log10) ([2]; 20000 nM) | level (log10) (Heptafluorobutyramide; 6700 nM) | level (log10) (Heptafluorobutyramide; 20000 nM) | level (log10) (Heptafluorobutyramide; 60000 nM) | level (log10) ([3]; 6700 nM) | level (log10) ([3]; 20000 nM) | level (log10) ([4]; 6700 nM) | level (log10) ([4]; 20000 nM) | level (log10) ([4]; 60000 nM) | level (log10) ([5]; 6700 nM) | level (log10) ([5]; 20000 nM) | level (log10) ([5]; 60000 nM) | level (log10) (Perfluoroheptanoic acid; 6700 nM) | level (log10) (Perfluoroheptanoic acid; 20000 nM) | level (log10) (Perfluoroheptanoic acid; 60000 nM)
CASM3C:HLA-DR | -0.0165 ± 0.012 | 0.003 ± 0.0028 | -0.0105 ± 0.026 | -0.0185 ± 0.0092 | 0.003 ± 0.024 | -0.0025 ± 0.0021 | -0.012 ± 0.038 | -0.002 ± 0.024 | -0.111 ± 0.013 | -0.006 ± 0.0099 | -0.0055 ± 0.0064 | -0.009 ± 0.021 | -0.01 ± 0.0028 | -0.0085 ± 0.032 | 0.029 ± 0.0042 | -0.009 ± 0.0085 | -0.0315 ± 0.005 | -0.004 ± 0.052
KF3CT:IL-1alpha | -0.0065 ± 0.026 | -0.009 ± 0.0042 | -0.0105 ± 0.013 | -0.0065 ± 0.015 | -0.0035 ± 0.0064 | 0.013 ± 0.0057 | -0.0005 ± 0.032 | 0.006 ± 0.028 | -0.111 | 0.01 ± 0.016 | 0.009 ± 0.0057 | -0.0295 ± 0.016 | -0.0225 ± 0.0035 | -0.001 ± 0.013 | -0.0095 ± 0.0021 | -0.007 ± 0.018 | 0.016 ± 0.014 | -0.0115 ± 0.0064
lMphg:CD69 | -0.0425 ± 0.039 | -0.069 ± 0.045 | -0.0115 ± 0.054 | -0.0375 ± 0.069 | -0.0155 ± 0.022 | -0.0145 ± 0.044 | 0.0115 ± 0.066 | -0.0715 ± 0.012 | -0.129 ± 0.0099 | -0.0365 ± 0.083 | -0.063 ± 0.072 | -0.0405 ± 0.066 | -0.039 ± 0.0099 | -0.0475 ± 0.019 | -0.0265 ± 0.00071 | -0.019 ± 0.038 | -0.021 ± 0.041 | -0.0205 ± 0.064
CASM3C:LDLR | -0.025 ± 0.04 | -0.0505 ± 0.0092 | -0.012 ± 0.017 | -0.002 ± 0.011 | -0.017 ± 0.0014 | -0.0145 ± 0.0064 | 0.024 ± 0.047 | -0.076 ± 0.0057 | -0.223 ± 0.021 | 0.0005 ± 0.011 | 0.009 | 0.013 ± 0.016 | -0.0295 ± 0.005 | -0.018 ± 0.023 | 0.007 ± 0.0042 | 0.0175 ± 0.0092 | 0.012 ± 0.016 | 0.0125 ± 0.039
BE3C:PAI-I | -0.015 ± 0.044 | -0.05 ± 0.011 | -0.0175 ± 0.0035 | -0.0075 ± 0.013 | -0.0065 ± 0.00071 | -0.0025 ± 0.00071 | -0.0115 ± 0.015 | -0.066 ± 0.0071 | -0.092 ± 0.017 | -0.025 ± 0.061 | -0.0105 ± 0.056 | 0.008 ± 0.1 | -0.0075 ± 0.028 | -0.008 ± 0.014 | -0.002 ± 0.04 | 0.007 ± 0.0028 | 0.027 ± 0.0057 | 0.042 ± 0.021
lMphg:SRB | -0.008 ± 0.0014 | -0.011 ± 0.013 | -0.007 ± 0.014 | -0.0045 ± 0.0078 | -0.015 ± 0.0099 | -0.0025 ± 0.005 | 0 ± 0.02 | -0.0215 ± 0.0078 | -0.0435 ± 0.022 | 0.006 ± 0.013 | -0.011 ± 0.0014 | -0.001 ± 0.0057 | -0.008 ± 0.0085 | 0.001 ± 0.0042 | -0.002 ± 0.0099 | -0.013 ± 0.02 | -0.01 ± 0.0028 | -0.002 ± 0.0014
lMphg:IL-1alpha | -0.033 ± 0.078 | -0.0355 ± 0.07 | -0.038 ± 0.042 | 0.034 ± 0.085 | -0.034 ± 0.021 | -0.0015 ± 0.018 | 0.0475 ± 0.053 | -0.018 ± 0.054 | -0.0235 ± 0.018 | 0.031 ± 0.021 | -0.01 ± 0.018 | 0.0305 ± 0.016 | -0.005 ± 0.016 | -0.0045 ± 0.013 | 0.0045 ± 0.0092 | -0.0275 ± 0.042 | -0.0025 ± 0.0035 | 0.0145 ± 0.012
3C:CD141/Thrombomodulin | 0.0105 ± 0.0078 | -0.042 ± 0.05 | -0.001 ± 0.017 | -0.0245 ± 0.018 | -0.004 ± 0.083 | -0.022 ± 0.099 | -0.047 ± 0.11 | 0.046 ± 0.03 | 0.261 ± 0.14 | -0.0385 ± 0.025 | -0.047 ± 0.031 | -0.031 ± 0.0057 | -0.036 ± 0.033 | -0.0295 ± 0.033 | -0.0385 ± 0.039 | 0.0185 ± 0.0035 | 0.0035 ± 0.00071 | 0.0205 ± 0.0021
MyoF:Collagen IV | -0.009 ± 0.09 | 0.012 ± 0.05 | 0.029 ± 0.024 | 0.057 ± 0.075 | -0.0185 ± 0.019 | -0.01 ± 0.0028 | 0.0275 ± 0.023 | -0.0665 ± 0.013 | 0.078 ± 0.035 | 0.03 ± 0.0071 | 0.0715 ± 0.0035 | 0.072 ± 0.028 | -0.0035 ± 0.018 | -0.009 ± 0.016 | -0.0055 ± 0.0035 | -0.0175 ± 0.022 | -0.014 ± 0.013 | 0.0305 ± 0.07
CASM3C:Proliferation | 0.006 ± 0.0071 | -0.0105 ± 0.053 | -0.001 ± 0.047 | 0.0195 ± 0.071 | -0.0675 ± 0.098 | 0.0315 ± 0.018 | -0.0275 ± 0.087 | 0.011 ± 0.04 | -0.175 ± 0.005 | -0.034 ± 0.0071 | -0.101 ± 0.062 | -0.106 ± 0.054 | 0.0025 ± 0.012 | 0.005 ± 0.016 | -0.0095 ± 0.0092 | -0.023 ± 0.0085 | -0.008 ± 0.035 | 0.0045 ± 0.053
